Reference: US20210353614A1, “COMPOUNDS AND USES THEREOF TO TREAT TUMORS IN A SUBJECT” (Merck Patent GMBH, priority 2018, published 2021)
Read-outs that look alike come from different tables or passages of the source.

Experiments:
[1] = system: human colon cancer xenograft model SW620; assay: CRC xenograft model, ATM inhibitors in combination with irinotecan; type: in vivo, mice
Procedure: Animals were treated with three 1-week cycles of a combination of irinotecan and the respective ATM inhibitors, or the respective monotherapy control arms. One cycle consisted of one irinotecan application (ip) at a dose of 50 mg/kg, followed by 100, and 50 mg/kg of ATMi 1, or 10 and 25 mg/kg of ATMi 2 (po) 24 h later and for four subsequent days.

colon cancer cell line [2] = assay: Immunogenic cell death induction (calreticulin, HSP70, HSP90 surface expression, ATP and HMGB1 release, caspase-3/7); type: cell-based
Procedure: […]. The inhibitor for ATM and SN38 were tested as single agents and in combination at the concentrations of the GI50 of the combination. The GI50 of SN38 was included as a positive control for induction of immunogenic cell death. […] Cell surface expression of calreticulin, HSP70 and HSP90 was analysed by Flow Cytometry, ATP secretion by ATPlite assay Perkin Elmer, HMGB1 release by HMGB1 Elisa (IBL International) and apoptosis by Caspase-Glo 3/7 Assay Systems (measures caspase-3/7 activities).
Analyses of DAMPs (Calreticulin, HSP70, HSP90, HMGB1 and ATP) were carried out whithin the same sample. Cells were treated 24 hours after seeding and analyses performed 72 hours post-treatment. Cells were used for FACS analyses and supenatants for ATP and HMGB1 measurements. Caspase-Glo 3/7 was carried out in parallel following the same treatment schedule.
For FACS analyses, an unstained sample was used as a gating control and an isotype sample to measure unspecific antibody binding. % PE positive cells represent cells with cell surface expression of the tested marker (all markers were conjugated with PE and tested independently). ATP secretion, HMGB1 release and apoptosis were carried out accordingly to the protocols provided by the commercial supplier (data represented as the average of two independent biological repeats).

colon cancer cell line [3] = assay: GI50 of SN38 and of the combination with ATMi2; type: cell-based
[4] = combination ATMi 2 25 mg/kg + irinotecan, d28
[5] = combination ATMi 2 25 mg/kg po + irinotecan 50 mg/kg ip, day 21

For `COc1cc2ncc3c(c2cc1-c1cn(C)nc1C)n(-c1c(F)cncc1OC)c(=O)n3C` [ATMi 2, 8-(1,3-Dimethyl-1H-pyrazol-4-yl)-1-(3-fluoro-5-methoxy-pyridin-4-yl)-7-methoxy-3-methyl-1,3-dihydro-imidazo[4,5-c]quinolin-2-one], the “partial responses (tumor volume >30% decrease)” value [1, 4] was 2/10, the “stable diseases (tumor volume change between 30% decrease and 73% increase)” value [1, 4] was 3/10 and the “animals progression free (<73% increase in tumor volume compared to starting volume)” value ([1]; combination ATMi 2 25 mg/kg + irinotecan, d28, one week after stop of treatment) was 5/10. For the same compound, the “decrease of mean tumor volume compared to starting volume” value [1, 5] was ~87%, the mean tumor volume [1, 5] was 53 mm^3 and the “induction of immunogenic cell death” value (colon cancer cell line [2]; ATMi2 single agent at 250 nM, 72 hours post-treatment) was “not”. The “induction of immunogenic cell death” value (colon cancer cell line [2]; combination 250 nM ATMi2 + 0.4 nM SN38, 72 hours post-treatment) was “clear induction of immunogenic cell death” and the GI50 (colon cancer cell line [3]; in combination with 0.4 nM SN38, read-out: GI50 of the combination (ATMi2 concentration)) was 250 nM.

For `CCc1c2c(nc3ccc(O)cc13)-c1cc3c(c(=O)n1C2)COC(=O)[C@]3(O)CC` [SN38, reference compound], the “induction of immunogenic cell death” value (colon cancer cell line [2]; SN38 at its GI50 (2 nM), 72 hours post-treatment) was “clear induction of immunogenic cell death”, the “induction of immunogenic cell death” value (colon cancer cell line [2]; SN38 single agent at 0.4 nM, 72 hours post-treatment) was “not” and the GI50 (colon cancer cell line [3]; SN38 as single agent, read-out: GI50) was 2 nM. For the same compound, the GI50 (colon cancer cell line [3]; in combination with 250 nM ATMi2, read-out: GI50 of the combination (SN38 concentration)) was 0.4 nM.

`CCc1c2c(nc3ccc(OC(=O)N4CCC(N5CCCCC5)CC4)cc13)-c1cc3c(c(=O)n1C2)COC(=O)[C@]3(O)CC` [irinotecan, reference compound] was tested, and the disease status ([1]; irinotecan arm, day 28) was “all animals showed progressive disease”.
